From PubChem BioAssay AID330 (DTP/NCI, 2004)
“And” between values parts separate entries of the source, which are not always exact repeats. Equal entries are not always repeated. Inconclusive results and toxic doses are left out.

Test system: P388 leukemia ip, CD2F1 mice, survival T/C
Test: NCI In Vivo Anticancer Drug Screen. Data for tumor model P388 Leukemia (intraperitoneal) in CD2F1 (CDF1) mice
Settings: endpoint: median survival time, higher = longer survival
Outline: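 Mice carrying the transplanted tumor received test compound or vehicle. Survival was recorded in each group, and the value is the treated-group measurement divided by that of the vehicle-treated control group.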

[1] = dose: 12.5 mg/kg/injection, schedule: Q01DX009 (ip), vehicle: Klucel (hydroxypropylcellulose) (HPC)
[2] = dose: 25.0 mg/kg/injection, schedule: Q01DX009 (ip), vehicle: Klucel (hydroxypropylcellulose) (HPC)
[3] = dose: 50.0 mg/kg/injection, schedule: Q01DX009 (ip), vehicle: Klucel (hydroxypropylcellulose) (HPC)
[4] = dose: 100.0 mg/kg/injection, schedule: Q01DX009 (ip), vehicle: Klucel (hydroxypropylcellulose) (HPC)
[5] = dose: 120.0 mg/kg/injection, schedule: Q01DX005 (ip), vehicle: Klucel (hydroxypropylcellulose) (HPC)
[6] = dose: 50.0 mg/kg/injection, schedule: Q01DX005 (ip), vehicle: Klucel (hydroxypropylcellulose) (HPC)
[7] = dose: 100.0 mg/kg/injection, schedule: Q01DX005 (ip), vehicle: Klucel (hydroxypropylcellulose) (HPC)
[8] = dose: 12.5 mg/kg/injection, schedule: Q01DX009 (ip), vehicle: saline
[9] = dose: 25.0 mg/kg/injection, schedule: Q01DX009 (ip), vehicle: saline
[10] = dose: 50.0 mg/kg/injection, schedule: Q01DX009 (ip), vehicle: saline with Tween-80
[11] = dose: 50.0 mg/kg/injection, schedule: Q01DX009 (ip), vehicle: saline
[12] = dose: 100.0 mg/kg/injection, schedule: Q01DX009 (ip), vehicle: saline with Tween-80
[13] = dose: 200.0 mg/kg/injection, schedule: Q01DX009 (ip), vehicle: saline with Tween-80
[14] = dose: 6.25 mg/kg/injection, schedule: Q01DX009 (ip), vehicle: saline
[15] = dose: 25.0 mg/kg/injection, schedule: Q01DX005 (ip), vehicle: saline with Tween-80
[16] = dose: 50.0 mg/kg/injection, schedule: Q01DX005 (ip), vehicle: saline with Tween-80
[17] = dose: 12.5 mg/kg/injection, schedule: Q01DX009 (ip), vehicle: water
[18] = dose: 25.0 mg/kg/injection, schedule: Q01DX009 (ip), vehicle: water
[19] = dose: 100.0 mg/kg/injection, schedule: Q01DX009 (ip), vehicle: water
[20] = dose: 100.0 mg/kg/injection, schedule: Q01DX005 (ip), vehicle: saline with Tween-80
[21] = dose: 100.0 mg/kg/injection, schedule: Q01DX001 (ip), vehicle: Klucel (hydroxypropylcellulose) (HPC)
[22] = dose: 200.0 mg/kg/injection, schedule: Q01DX001 (ip), vehicle: Klucel (hydroxypropylcellulose) (HPC)
[23] = dose: 400.0 mg/kg/injection, schedule: Q01DX001 (ip), vehicle: Klucel (hydroxypropylcellulose) (HPC)
[24] = dose: 200.0 mg/kg/injection, schedule: Q01DX005 (ip), vehicle: saline with Tween-80

CCOC1NC(=O)Oc2ccccc21 (configuration not stated)
T/C (dose: 3.12 mg/kg/injection, schedule: Q01DX005 (ip), vehicle: Klucel (hydroxypropylcellulose) (HPC)): 100 % of control
T/C (dose: 6.25 mg/kg/injection, schedule: Q01DX005 (ip), vehicle: Klucel (hydroxypropylcellulose) (HPC)): 96 % of control
T/C (dose: 12.5 mg/kg/injection, schedule: Q01DX005 (ip), vehicle: Klucel (hydroxypropylcellulose) (HPC)): 103 % of control and 105 % of control
T/C [1]: 96 % of control
T/C [2]: 100 % of control and 105 % of control
T/C [3]: 100 % of control and 103 % of control (2×)
T/C (dose: 72.0 mg/kg/injection, schedule: Q01DX005 (ip), vehicle: Klucel (hydroxypropylcellulose) (HPC)): 94 % of control
T/C [4]: 108 % of control and 109 % of control and 113 % of control
T/C [5]: 102 % of control
T/C (dose: 400.0 mg/kg/injection, schedule: Q01DX009 (ip), vehicle: Klucel (hydroxypropylcellulose) (HPC)): 200 % of control

C=C(C)C(=NC1CCCCC1)NC(C)(C)C
T/C (dose: 25.0 mg/kg/injection, schedule: Q01DX005 (ip), vehicle: Klucel (hydroxypropylcellulose) (HPC)): 99 % of control
T/C [6]: 100 % of control
T/C [7]: 99 % of control and 102 % of control

S=C1SCN(c2ccc3c(c2)OCO3)CN1c1ccc2c(c1)OCO2
T/C [3]: 96 % of control
T/C [4]: 100 % of control
T/C (dose: 200.0 mg/kg/injection, schedule: Q01DX009 (ip), vehicle: Klucel (hydroxypropylcellulose) (HPC)): 96 % of control

Nc1cc(Cl)c(Cl)c(Cl)c1N
T/C [8]: 106 % of control
T/C [9]: 104 % of control
T/C [10]: 105 % of control
T/C [11]: 103 % of control
T/C [12]: 105 % of control
T/C (dose: 100.0 mg/kg/injection, schedule: Q01DX009 (ip), vehicle: saline): 105 % of control and 93 % of control
T/C [13]: 102 % of control
T/C (dose: 200.0 mg/kg/injection, schedule: Q01DX009 (ip), vehicle: saline): 123 % of control and 93 % of control and 94 % of control

CSc1ncc2c(=O)c3c(ccc4ccccc43)oc2n1
T/C (dose: 3.12 mg/kg/injection, schedule: Q01DX009 (ip), vehicle: saline with Tween-80): 93 % of control
T/C (dose: 6.25 mg/kg/injection, schedule: Q01DX009 (ip), vehicle: saline with Tween-80): 102 % of control
T/C (dose: 12.5 mg/kg/injection, schedule: Q01DX009 (ip), vehicle: saline with Tween-80): 96 % of control

C1CC[N+]2(CC1)CCCCC2
T/C [14]: 100 % of control
T/C [8]: 100 % of control
T/C [9]: 108 % of control
T/C [11]: 98 % of control

CCC1C2Cc3ccc(O)cc3C1(CC)CCN2C (configuration not stated)
T/C (dose: 6.25 mg/kg/injection, schedule: Q01DX005 (ip), vehicle: saline with Tween-80): 99 % of control
T/C (dose: 12.5 mg/kg/injection, schedule: Q01DX005 (ip), vehicle: saline with Tween-80): 99 % of control
T/C [15]: 95 % of control
T/C [6]: 103 % of control
T/C [16]: 100 % of control
T/C [7]: 106 % of control

COc1cc2c[n+](C)c3ccccc3c2cc1OC
T/C [17]: 112 % of control and 115 % of control
T/C [18]: 124 % of control
T/C [19]: 105 % of control

CCNC(C)(C)C(SSSC(c1ccc(Cl)cc1)C(C)(C)NCC)c1ccc(Cl)cc1 (configuration not stated)
T/C [14]: 109 % of control
T/C [8]: 115 % of control
T/C [9]: 105 % of control
T/C [11]: 101 % of control

Cc1cc([N+](=O)[O-])cc(Br)c1N
T/C (dose: 100.0 mg/kg/injection, schedule: Q01DX001 (ip), vehicle: saline with Tween-80): 100 % of control
T/C (dose: 200.0 mg/kg/injection, schedule: Q01DX001 (ip), vehicle: saline with Tween-80): 95 % of control
T/C (dose: 400.0 mg/kg/injection, schedule: Q01DX001 (ip), vehicle: saline with Tween-80): 95 % of control

O=C1Nc2ccccc2C1=Nc1cccc2cnccc12
T/C (dose: 60.0 mg/kg/injection, schedule: Q01DX005 (ip), vehicle: Klucel (hydroxypropylcellulose) (HPC)): 100 % of control
T/C [5]: 95 % of control
T/C (dose: 240.0 mg/kg/injection, schedule: Q01DX005 (ip), vehicle: Klucel (hydroxypropylcellulose) (HPC)): 98 % of control

CC(/C=C/c1ccccc1)=N\NS(=O)(=O)c1ccc(C)cc1
T/C [16]: 95 % of control
T/C [20]: 91 % of control

Cc1ccc(S(=O)(=O)N/N=C/c2c(C)nc3n2CCS3)cc1
T/C [21]: 101 % of control
T/C [22]: 102 % of control
T/C [23]: 102 % of control

O=C1NN=C2CCCCCCCCCCC12Cl (configuration not stated)
T/C [10]: 108 % of control
T/C [12]: 106 % of control
T/C [13]: 106 % of control

Cc1cc(N)cc(N)c1O
T/C (dose: 1.56 mg/kg/injection, schedule: Q01DX009 (ip), vehicle: saline): 97 % of control
T/C (dose: 3.12 mg/kg/injection, schedule: Q01DX009 (ip), vehicle: saline): 95 % of control
T/C [14]: 97 % of control

Cc1ccc2c(c1)S(=O)(=O)c1ccc3ccccc3c1N2
T/C [16]: 101 % of control
T/C [20]: 99 % of control
T/C [24]: 100 % of control

CC(C)(C)OC(=O)NC(CCC(=O)O)C(=O)O (configuration not stated)
T/C [16]: 100 % of control
T/C [20]: 97 % of control
T/C [24]: 103 % of control

CC(=O)N1OC2(C)c3ccccc3C1(C)c1ccccc12
T/C [10]: 100 % of control
T/C [12]: 94 % of control
T/C [13]: 92 % of control

Cc1cc2c(=O)c(C(=O)O)c[nH]c2cc1-n1cccc1
T/C (dose: 60.0 mg/kg/injection, schedule: Q01DX005 (ip), vehicle: saline with Tween-80): 97 % of control
T/C (dose: 120.0 mg/kg/injection, schedule: Q01DX005 (ip), vehicle: saline with Tween-80): 100 % of control
T/C (dose: 240.0 mg/kg/injection, schedule: Q01DX005 (ip), vehicle: saline with Tween-80): 102 % of control

Cc1cc2c(c(O)c1O)/C(=C/N=NC(N)=S)C(Cl)=N2
T/C [21]: 101 % of control
T/C [22]: 102 % of control
T/C [23]: 100 % of control

Cc1cc2nc(N(C)C)cc(N(C)C)c2cc1C
T/C [1]: 115 % of control
T/C [2]: 109 % of control
T/C [3]: 100 % of control and 105 % of control

Cc1ccc(S(=O)(=O)NC(CSCc2ccccc2)C(=O)O)cc1 (configuration not stated)
T/C (dose: 100.0 mg/kg/injection, schedule: Q04DX003 (ip), vehicle: saline with Tween-80): 100 % of control
T/C (dose: 200.0 mg/kg/injection, schedule: Q04DX003 (ip), vehicle: saline with Tween-80): 100 % of control
T/C (dose: 400.0 mg/kg/injection, schedule: Q04DX003 (ip), vehicle: saline with Tween-80): 100 % of control

Cc1ccc(OP(=O)(Oc2ccc(C)cc2)Oc2ccc(C)cc2)cc1.Cc1ccc(OP(=O)(Oc2ccc(C)cc2)Oc2ccc(C)cc2)cc1.Cc1ccc(OP(=O)(Oc2ccc(C)cc2)Oc2ccc(C)cc2)cc1.Cc1ccc(OP(=O)(Oc2ccc(C)cc2)Oc2ccc(C)cc2)cc1.[Mn+2].[O-][Cl+3]([O-])([O-])O
T/C (dose: 10.0 mg/kg/injection, schedule: Q01DX001 (ip), vehicle: Klucel (hydroxypropylcellulose) (HPC)): 101 % of control
T/C (dose: 20.0 mg/kg/injection, schedule: Q01DX001 (ip), vehicle: Klucel (hydroxypropylcellulose) (HPC)): 94 % of control
T/C (dose: 40.0 mg/kg/injection, schedule: Q01DX001 (ip), vehicle: Klucel (hydroxypropylcellulose) (HPC)): 99 % of control

COc1cc(C2SCC(=O)N2c2nncs2)c([N+](=O)[O-])cc1OC (configuration not stated)
T/C [6]: 91 % of control
T/C [7]: 91 % of control
T/C (dose: 200.0 mg/kg/injection, schedule: Q01DX005 (ip), vehicle: Klucel (hydroxypropylcellulose) (HPC)): 89 % of control

CN1[C@H]2CC[C@@H]1[C@@H](O)CC2
T/C [15]: 97 % of control
T/C [16]: 97 % of control
T/C [20]: 91 % of control

COc1cc2cc3c4cc(OC)c(OC)cc4cc(C)[n+]3cc2cc1OC
T/C [17]: 155 % of control
T/C [18]: 180 % of control
T/C (dose: 50.0 mg/kg/injection, schedule: Q01DX009 (ip), vehicle: water): 170 % of control
T/C [19]: 163 % of control

COc1cc(OC)c(NC(=O)Nc2cc(Cl)ccc2Cl)cc1Cl
T/C [10]: 94 % of control
T/C [12]: 91 % of control
